The results in this text go back to paper PMC12552119, “Tailored structured peptide design with a key-cutting machine approach” (Nature Machine Intelligence, 2025).

Data set [1] can be described thus: Mouse weight in the skin abscess model. On the set-up: species or system CD-1 mice. The settings on record: in vivo. The protocol: The backs of six-week-old female CD-1 mice under anaesthesia were shaved and injured with a superficial linear skin abrasion made with a needle. An aliquot of A. baumannii ATCC 19606 (2 × 10^6 CFU ml^−1; 20 μl) previously grown in LB medium until 0.5 optical density ml^−1 (optical value at 600 nm) and then washed twice with sterile PBS (pH 7.4, 9,391 g for 3 min) was added to the scratched area. Peptides diluted in sterile water at MIC value were administered to the wound area 1 h after the infection. Two and four days after infection animals were euthanized, and the scarified skin was excised, homogenized using a bead beater (25 Hz for 20 min), tenfold serially diluted, and plated on McConkey agar plates for CFU quantification. The experiments were performed using six mice per group. Mice were housed in groups of three and maintained under a 12-h light/dark cycle at 22 °C with humidity controlled at 50%. The skin abscess infection mouse model was revised and approved by University Laboratory Animal Resources from the University of Pennsylvania (protocol 806763).
Figure S6. Cytotoxicity and anti-infective activity of designed peptides. (a) Cytotoxic effects of increasing concentrations ([…]) of each peptide on human embryonic kidney (HEK293T) cells after 24 h of treatment. Mouse weight was monitored throughout the duration of the (b) skin abscess model (4 days total) and the (e) deep thigh infection model (8 days total) to assess potential toxic effects of both the bacterial load and the designed peptides. (c) Schematic of the neutropenic thigh infection mouse model, where the designed peptides were administered intraperitoneally. Anti-infective activity against A. baumannii ATCC 19606 was evaluated 4 days after intraperitoneal peptide administration (n = 6). (d) Four days after intraperitoneal injection, NE2 at its MIC (32 µmol L-1) inhibited by […]
Statistical significance in panel d was determined using one-way ANOVA followed by Dunnett’s test; P values are shown in the graphs. […]

Data set [2] deals with E. faecium ATCC 700221 - VRE. The data set is classed as cell-based. The conditions noted are these: ATCC 700221, 24 h. The protocol: (§1) Fig. 2 Antimicrobial activity and secondary structure of computationally designed peptides. a, Structure prediction of the synthesized peptides. b, Heatmap of the antimicrobial activities of the peptides against 11 clinically relevant pathogens, including four strains resistant to conventional antibiotics. Briefly, 10^6 bacterial cells and serially diluted peptides (1-64 μmol l^−1) were incubated at 37 °C. One day after treatment, the optical density at 600 nm was measured in a microplate reader to evaluate bacterial growth in the presence of the peptides. MIC values in the heatmap are the mode of the replicates in each condition. c–f, Ternary plots showing the percentage of secondary structure for each peptide (at 50 μmol l^−1) in four different solvents: water (c), 60% TFE in water (d), 10 mmol l^−1 SDS in water (e) and 50% methanol (MeOH) in water (f). Secondary structure fractions were calculated using the BeStSel server. […] An error of one column cannot be fully excluded. / Panel b: AT1, AT2, AT3 and all blank cells print no number and are left out.
(§2) Broth microdilution assays[64] were conducted to establish the MIC for each peptide. Peptides were added to untreated polystyrene 96-well microtiter plates and serially diluted twofold in sterile water, ranging from 1 to 64 μmol l^−1. A bacterial inoculum at a concentration of 10^6 CFU ml^−1 in LB medium was then mixed in a 1:1 ratio with the peptide solution. […] Each assay was performed in three independent replicates.

The subject of data set [3] is A. baumannii ATCC 19606. Briefly: Cytoplasmic-membrane depolarization, DiSC3-5. It counts as cell-based, Acinetobacter baumannii. The settings on record: DiSC3-5 fluorescence, peptides at their MIC, 60 min. The protocol: Fig. 3 Mechanism of action and cytotoxic activity of designed peptides. a, To assess whether the peptides act on bacterial membranes, all active peptides against A. baumannii American Type Culture Collection (ATCC) 19606 were subjected to outer-membrane permeabilization, and peptides active against A. baumannii ATCC 19606 and vancomycin-resistant E. faecalis ATCC 700802 were tested in cytoplasmic-membrane depolarization assays. b, The fluorescent probe NPN was used to assess membrane permeabilization induced by the tested peptides. c,d, The fluorescent probe DiSC3-5 was used to evaluate membrane depolarization caused by the designed peptides in A. baumannii ATCC 19606 (c) and vancomycin-resistant E. faecalis ATCC 700802 (d). […] All experiments were performed in three independent replicates. […]
The cytoplasmic-membrane depolarization assay was performed using the membrane-potential-sensitive dye DiSC3-5. […] Membrane depolarization was then followed by reading changes in the fluorescence (λex = 622 nm, λem = 670 nm) over time for 60 min. The relative fluorescence was calculated using the untreated control (buffer + bacteria + fluorescent dye) as baseline and the following equation was applied to reflect the percentage difference between the baselines and the sample: percentagedifference=100×(fluorescencesample−fluorescenceuntreatedcontrol)/fluorescenceuntreatedcontrol. […]

Data set [4] concerns A. baumannii ATCC 19606. It counts as cell-based, Acinetobacter baumannii. The conditions noted are these: ATCC 19606, 24 h. The protocol:
as §1
In this study, we used the following pathogenic bacterial strains: A. baumannii ATCC 19606, E. coli AIC221 (E. coli MG1655 phnE_2::FRT (control strain for AIC222)) and E. coli AIC222 (E. coli MG1655 pmrA53 phnE_2::FRT (polymyxin resistant; colistin-resistant strain)), Klebsiella pneumoniae ATCC 13883, Pseudomonas aeruginosa PAO1, P. aeruginosa PA14 and Staphylococcus aureus ATCC 12600. All pathogens were grown in Luria–Bertani (LB) broth and on LB agar. Pseudomonas isolation (P. aeruginosa strains) agar plates were exclusively used in the case of Pseudomonas species. In all the experiments, bacteria were inoculated from one isolated colony and grown overnight (16 h) in liquid medium at 37 °C. On the following day, inocula were diluted 1:100 in fresh media and incubated at 37 °C to mid-logarithmic phase.
as §2

In data set [5] the test system is E. faecalis ATCC 700802 - VRE. It counts as cell-based, Enterococcus faecalis. The settings on record: ATCC 700802, 24 h. The protocol: as §1, §2
For a further data set, the system named is HEK293T cells. Briefly: Cytotoxicity, MTT assay. The data set is classed as cell-based, human. The settings on record: 24 h. The protocol: Fig. 3 Mechanism of action and cytotoxic activity of designed peptides. a, To assess whether the peptides act on bacterial membranes, all active peptides against A. baumannii American Type Culture Collection (ATCC) 19606 were subjected to outer-membrane permeabilization, and peptides active against A. baumannii ATCC 19606 and vancomycin-resistant E. faecalis ATCC 700802 were tested in cytoplasmic-membrane depolarization assays. b, The fluorescent probe NPN was used to assess membrane permeabilization induced by the tested peptides. c,d, The fluorescent probe DiSC3-5 was used to evaluate membrane depolarization caused by the designed peptides in A. baumannii ATCC 19606 (c) and vancomycin-resistant E. faecalis ATCC 700802 (d). […] All experiments were performed in three independent replicates. Panel a created with BioRender.com. Source data TEXT PRINTED IN THE PICTURE: (e) AT1: CC50 (μmol l^-1), HEK293T cells: 2,758 | (e) AT2: CC50 (μmol l^-1), HEK293T cells: 2 × 10^37 | (e) AT3: CC50 (μmol l^-1), HEK293T cells: 269 | (e) AT4: CC50 (μmol l^-1), HEK293T cells: 3,015 | (e) AT5: CC50 (μmol l^-1), HEK293T cells: 6 × 10^41 | (e) NE1: CC50 (μmol l^-1), HEK293T cells: 6 × 10^33 | (e) NE2: CC50 (μmol l^-1), HEK293T cells: 507 | (e) NE3: CC50 (μmol l^-1), HEK293T cells: 655 | (e) NE4: CC50 (μmol l^-1), HEK293T cells: 2 × 10^32 | (e) NG1: CC50 (μmol l^-1), HEK293T cells: 351 | (e) NG2: CC50 (μmol l^-1), HEK293T cells: 1 × 10^35 | (e) NG3: CC50 (μmol l^-1), HEK293T cells: 2 × 10^46 DOUBTS OF THE COPYIST ABOUT THIS PICTURE: AT2, CC50: small exponent, 37 or 57 / AT5, CC50: small exponent, 41 uncertain / NE1, CC50: small exponent, 33 or 38 / NE4, CC50: small exponent, 32 or 52 / NG2, CC50: small exponent, 35 or 36 / NG3, CC50: small exponent, 46 or 48 […]
HEK293T cells were obtained from the ATCC (CRL-3216). The cells were cultured in high-glucose DMEM supplemented with 1% penicillin and streptomycin (antibiotics) and 10% fetal bovine serum and grown at 37 °C in a humidified atmosphere containing 5% CO2.
One day before the experiment, an aliquot of 100 μl of the cells at 50,000 cells ml^−1 was seeded into each well of the cell-treated 96-well plates used in the experiment (that is, 5,000 cells per well)[45]. The attached HEK293T cells were then exposed to increasing concentrations of the peptides (4–64 μmol l^−1) for 24 h. After the incubation period, we performed the (3-(4,5-dimethylthiazol-2-yl)-2,5-diphenyltetrazolium bromide) tetrazolium reduction assay (MTT assay)[45]. […] The resulting salts were then resuspended in hydrochloric acid (0.04 mol l^−1) in anhydrous isopropanol and quantified by spectrophotometric measurements of absorbance at 570 nm. […]

For data set [6], the system named is 11 clinically relevant strains, including the ESKAPEE pathogens. Briefly: MIC against the whole strain panel. The data set is classed as cell-based. The settings on record: 11 strains, peptides 1-64 μmol l^-1. The text has this: We synthesized 12 sequences selected for their ease of synthesis and low aggregation potential: five from AT, four from NE and three from NG. We excluded the ND group because its peptides were challenging to synthesize and solubilize. We determined their minimum inhibitory concentrations (MICs) against 11 clinically relevant strains, including the ESKAPEE pathogens. […] Further investigation is needed to confirm this hypothesis.
Fig. 2 Antimicrobial activity and secondary structure of computationally designed peptides. a, Structure prediction of the synthesized peptides. b, Heatmap of the antimicrobial activities of the peptides against 11 clinically relevant pathogens, including four strains resistant to conventional antibiotics. Briefly, 10^6 bacterial cells and serially diluted peptides (1-64 μmol l^−1) were incubated at 37 °C. One day after treatment, the optical density at 600 nm was measured in a microplate reader to evaluate bacterial growth in the presence of the peptides. MIC values in the heatmap are the mode of the replicates in each condition. c–f, Ternary plots showing the percentage of secondary structure for each peptide (at 50 μmol l^−1) in four different solvents: water (c), 60% TFE in water (d), 10 mmol l^−1 SDS in water (e) and 50% methanol (MeOH) in water (f). Secondary structure fractions were calculated using the BeStSel server. […]

In brackets after ≈: the same amount, converted by molar mass. Where no end group is shown, it is not given here.

Turning to `C[C@H]1COc2c(N3CCN(C)CC3)c(F)cc3c(=O)c(C(=O)O)cn1c23` [Levofloxacin, reference compound], the “mouse weight (day 0 = 100)” value in data set [1] stood at 105.

As usually defined, the MIC is the smallest concentration in the dilution series that meets the test's criterion for growth inhibition. A lower MIC goes with a more susceptible organism. With `CC[C@H](C)[C@H](NC(=O)[C@H](CS)NC(=O)[C@H](CC(C)C)NC(=O)[C@H](Cc1c[nH]c2ccccc12)NC(=O)[C@H](C)NC(=O)[C@H](CCSC)NC(=O)[C@H](C)NC(=O)[C@H](Cc1c[nH]cn1)NC(=O)[C@@H]1CCCN1)C(=O)N[C@@H](CCCNC(=N)N)C(=O)N[C@@H](Cc1ccccc1)C(=O)N[C@@H](Cc1c[nH]cn1)C(=O)O` [NE1], the MIC was determined as 16 µM (≈ 23.7 µg/mL) in data set [2], 32 µM (≈ 47.4 µg/mL) with A. baumannii ATCC 19606 [4] and 8 µM (≈ 11.9 µg/mL) in data set [5]. Besides, the cytoplasmic-membrane depolarization entry in the data set on A. baumannii ATCC 19606 [3] is reported as “particularly effective”.

Turning to FKLCFVLHFVAL [NE4], the MIC in data set [5] amounted to 8 µM.

HWHAILIHFHFA [AT1]: the “CC50, cytotoxic concentration leading to 50% cell lysis” value (from here on “CC50 … to 50% cell lysis”) in the data set with HEK293T cells turned out to be 2758 µM. In data set [6], the “MIC against at least one strain / activity in the panel” value was “inactive”.

Take HWHLILHFHACH [NG2]: the MIC in data set [2] and in data set [5] was 64 µM throughout.

For HWHNKVLHWHIQ [AT3], the “CC50 … to 50% cell lysis” value in the data set with HEK293T cells turned out to be 268.9 µM. For the same molecule, the “MIC against at least one strain / activity in the panel” value in data set [6] was “inactive”.

For the molecule IWHAAVLHFAIS [AT5], the figures for the MIC in data set [2] and in data set [5] were 32 µM and 64 µM, respectively.

For the molecule WHFHVWIHCIAF [NE3], the “CC50 … to 50% cell lysis” value in the data set on HEK293T cells turned out to be 655.4 µM. In addition, the MIC in data set [2] came to 32 µM; in data set [5], 16 µM.
